SMILES strings stand for the structures.

Assay [1] concerns the target T1, androgen receptor (AR-LBD) (Rattus norvegicus, UniProt P15207).
T1 construct: 5 μL of 2×AR-LBD/Fluoromone AL Red Complex contained in the kit; purchased Invitrogen
T1 sequence (P15207 651-882 limits assumed): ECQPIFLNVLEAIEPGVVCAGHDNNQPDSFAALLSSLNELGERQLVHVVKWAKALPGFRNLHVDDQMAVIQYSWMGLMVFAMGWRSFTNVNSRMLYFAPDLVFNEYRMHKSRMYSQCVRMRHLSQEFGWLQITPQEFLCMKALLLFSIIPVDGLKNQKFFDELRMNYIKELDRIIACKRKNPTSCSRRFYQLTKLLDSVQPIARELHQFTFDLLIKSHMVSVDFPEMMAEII
Briefly: Evaluation of androgen receptor affinity (PolarScreen Androgen Receptor Competitor Assay Kit, Red; fluorescence polarization). The following applies: 22° C. for 5 hours, relative to binding rate of 1 μM DHT, read-out: AR affinity (pEC50) (converted). Summed up:
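Fluorescence polarization competition assay: compound was incubated in duplicate with the kit's AR-LBD/Fluoromone AL Red complex for 5 h at 22 °C. Binding was expressed relative to 1 μM DHT, and pEC50 was derived by 4-parameter fit.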

In the next assay the target is T2, human androgen receptor (Homo sapiens, UniProt P10275).
T2 construct: expressed in transfected cells; host or cells: HEK293
T2 sequence (P10275 1-920): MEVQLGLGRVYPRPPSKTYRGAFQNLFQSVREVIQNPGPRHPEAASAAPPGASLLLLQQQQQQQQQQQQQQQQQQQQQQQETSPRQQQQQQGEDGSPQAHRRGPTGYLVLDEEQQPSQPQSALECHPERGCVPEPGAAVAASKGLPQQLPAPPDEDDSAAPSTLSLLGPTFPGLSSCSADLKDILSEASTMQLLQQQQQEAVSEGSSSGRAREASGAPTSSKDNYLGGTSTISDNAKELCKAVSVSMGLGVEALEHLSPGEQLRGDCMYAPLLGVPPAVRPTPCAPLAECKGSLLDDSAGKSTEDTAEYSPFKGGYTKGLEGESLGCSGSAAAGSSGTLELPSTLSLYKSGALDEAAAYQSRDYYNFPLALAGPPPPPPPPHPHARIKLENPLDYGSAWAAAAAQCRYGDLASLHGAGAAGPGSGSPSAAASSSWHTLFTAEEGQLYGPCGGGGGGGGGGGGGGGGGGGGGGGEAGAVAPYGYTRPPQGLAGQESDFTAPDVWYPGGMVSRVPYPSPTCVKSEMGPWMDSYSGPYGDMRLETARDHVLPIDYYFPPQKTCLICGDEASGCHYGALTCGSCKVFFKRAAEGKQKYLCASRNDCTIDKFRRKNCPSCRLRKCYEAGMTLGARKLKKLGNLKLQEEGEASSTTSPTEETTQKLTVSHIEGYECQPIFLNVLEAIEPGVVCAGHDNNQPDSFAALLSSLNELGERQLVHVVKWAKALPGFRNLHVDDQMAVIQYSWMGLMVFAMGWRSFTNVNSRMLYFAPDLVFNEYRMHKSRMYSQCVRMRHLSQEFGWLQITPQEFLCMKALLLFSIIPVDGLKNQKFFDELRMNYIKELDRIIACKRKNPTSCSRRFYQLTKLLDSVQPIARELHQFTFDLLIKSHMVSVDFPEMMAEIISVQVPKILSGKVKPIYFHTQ
The assay can be described thus: Reporter assay of an androgen receptor responsive sequence (luciferase, transiently transfected HEK293 cells). Type of assay: cell-based. The following applies: 24 hours incubation, relative to activity of 100 nM DHT, read-out: AR transcriptive activity (pEC50) (converted). In a few lines: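 HEK293 cells transiently transfected for 3 h with ARE-firefly luciferase, full-length human AR and TK-Renilla plasmids, then exposed to compound for 24 h at 37 °C in 5% charcoal-treated FBS/DMEM. Dual-Glo luminescence read; pEC50 from 4-parameter fit relative to 100 nM DHT.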
Background: In a reporter assay the amount or activity of a reporter protein is the signal.

For `Cc1sc(N(C[C@@H]2CCCC[C@@H](O)C2)c2ccc(C#N)cc2)nc1C(=O)NS(C)(=O)=O` (racemic) [Compound 474, 2-[4-cyano-N-[[trans-3-hydroxycycloheptyl]methyl]anilino]-5-methyl-N-methylsulfonyl-thiazole-4-carboxamide], the values for the EC50 (in assay [1]; on human androgen receptor) were 794 nM and 1000 nM, respectively.
As to `Cc1sc(N(CC[C@@H]2CCCC[C@H]2O)c2ccc(C#N)cc2)nc1C(=O)NS(C)(=O)=O` (racemic) [Compound 410, 2-[4-cyano-N-[2-[trans-2-hydroxycyclohexyl]ethyl]anilino]-5-methyl-N-methylsulfonyl-thiazole-4-carboxamide], the figures for the EC50 (in assay [1]; at human androgen receptor) were 158 nM and 316 nM, respectively.
In the same order, the values of `Cc1sc(N(Cc2ccccc2)c2ccc(C#N)cc2)nc1C(=O)NS(=O)(=O)Cc1ccccc1` [Compound 374, 2-(N-benzyl-4-cyano-anilino)-N-benzylsulfonyl-5-methyl-thiazole-4-carboxamide] are 39.8 nM and 501 nM.
In the case of `Cc1sc(N(Cc2ccccc2)c2ccc(S(F)(F)(F)(F)F)cc2)nc1C(=O)NS(C)(=O)=O` [Example 241, 2-[N-benzyl-4-(pentafluorosulfanyl)anilino]-5-methyl-N-methylsulfonyl-thiazole-4-carboxamide], the results for the EC50 (in assay [1]; on human androgen receptor) were 316 nM and 1000 nM, respectively.
Turning to `Cc1sc(N(CCc2ccccc2Cl)Cc2ccccc2)nc1C(=O)NS(C)(=O)=O` [Example 303, 2-[benzyl-[2-(2-chlorophenyl)ethyl]amino]-5-methyl-N-methylsulfonyl-thiazole-4-carboxamide], the EC50 in assay [1] is 126 nM; at human androgen receptor, above 10000 nM.
The like results for `Cc1sc(N(Cc2ccccc2)c2ccc(C#N)cc2)nc1C(=O)NS(=O)(=O)CC(F)(F)F` [Compound 372, 2-(N-benzyl-4-cyano-anilino)-5-methyl-N-(2,2,2-trifluoroethylsulfonyl)thiazole-4-carboxamide] were, in that order, 31.6 nM and 1260 nM.
With `Cc1sc(N(CC2CCN(C)CC2)c2ccc(C#N)cc2)nc1C(=O)NS(C)(=O)=O` [Compound 351, 2-[4-cyano-N-[(1-methyl-4-piperidyl)methyl]anilino]-5-methyl-N-methylsulfonyl-thiazole-4-carboxamide], the EC50 is above 2000 nM in assay [1] and above 10000 nM on human androgen receptor.
In the same order, the values of `Cc1sc(N(Cc2ccc(F)cc2)c2ccc(C#N)cc2)nc1C(=O)NS(=O)(=O)Cc1ccncc1` [Compound 501, 2-[4-cyano-N-[(4-fluorophenyl)methyl]anilino]-5-methyl-N-(4-pyridylmethylsulfonyl)thiazole-4-carboxamide] are 39.8 nM and 63.1 nM.
In the same order, the values of `Cc1ccccc1CN(c1ccc(C#N)cc1)c1nc(C(=O)NS(C)(=O)=O)c(C)s1` [Compound 45, 2-[4-cyano-N-(o-tolylmethyl)anilino]-5-methyl-N-methylsulfonyl-thiazole-4-carboxamide] are 158 nM and 501 nM.
On to `Cc1sc(N(Cc2cccc3ccsc23)c2ccc(C#N)cc2)nc1C(=O)NS(C)(=O)=O` [Compound 378, 2-[N-(benzothiophen-7-ylmethyl)-4-cyano-anilino]-5-methyl-N-methylsulfonyl-thiazole-4-carboxamide], for which the figures for the EC50 (in assay [1]; at human androgen receptor) were 25.1 nM and 50.1 nM, respectively.
Turning to `Cc1sc(N(Cc2ccc(OCc3cccnc3)cc2)c2ccc(C#N)cc2)nc1C(=O)NS(C)(=O)=O` [Compound 567, 2-[4-cyano-N-[[4-(3-pyridylmethoxy)phenyl]methyl]anilino]-5-methyl-N-methylsulfonyl-thiazole-4-carboxamide], the EC50 in assay [1] was 100 nM; at human androgen receptor, above 10000 nM.
As to `Cc1sc(N(Cc2ccc(F)cc2)c2ccc(C#N)cc2)nc1C(=O)NS(=O)(=O)Cc1cccnc1` [Compound 122, 2-[4-cyano-N-[(4-fluorophenyl)methyl]anilino]-5-methyl-N-(3-pyridylmethylsulfonyl)thiazole-4-carboxamide], the EC50 in assay [1] is 25.1 nM; at human androgen receptor, 20 nM.
Consider `Cc1sc(N(CCc2ccc(C#N)cc2)Cc2ccc(OC(F)(F)F)cc2)nc1C(=O)NS(C)(=O)=O` [Compound 323, 2-[2-(4-cyanophenyl)ethyl-[[4-(trifluoromethoxy)phenyl]methyl]amino]-5-methyl-N-methylsulfonyl-thiazole-4-carboxamide], for which the EC50 in assay [1] was 25.1 nM; on human androgen receptor, 251 nM.
With `Cc1sc(N(Cc2ccc(OC(F)(F)F)cc2)c2ccc(C(F)(F)F)nc2)nc1C(=O)NS(C)(=O)=O` [Compound 471, 5-methyl-N-methylsulfonyl-2-[[4-(trifluoromethoxy)phenyl]methyl-[6-(trifluoromethyl)-3-pyridyl]amino]thiazole-4-carboxamide], the EC50 is 100 nM in assay [1] and 1000 nM on human androgen receptor.
Take `Cc1sc(N(Cc2ccc(C3CC3)cc2)c2ccc(C#N)cc2)nc1C(=O)NS(C)(=O)=O` [Compound 588, 2-[4-cyano-N-[(4-cyclopropylphenyl)methyl]anilino]-5-methyl-N-methylsulfonyl-thiazole-4-carboxamide]: the figures for the EC50 (in assay [1]; at human androgen receptor) were 31.6 nM and 200 nM, respectively.
In the same order, the values of `Cc1sc(N(CCn2cc(C#N)cn2)Cc2ccccc2)nc1C(=O)NS(C)(=O)=O` [Compound 326, 2-[benzyl-[2-(4-cyanopyrazol-1-yl)ethyl]amino]-5-methyl-N-methylsulfonyl-thiazole-4-carboxamide] are 631 nM and 1000 nM.
In the case of `CS(=O)(=O)NC(=O)c1nc(N(Cc2ccccc2)c2ccc(C#N)cc2)sc1C(F)(F)F` [Example 230, 2-(N-benzyl-4-cyano-anilino)-N-methylsulfonyl-5-(trifluoromethyl)thiazole-4-carboxamide], the EC50 in assay [1] was 126 nM; at human androgen receptor it was 1260 nM.
Regarding `Cc1sc(N(Cc2ccc(F)cc2)c2ccc(C(F)(F)F)nc2)nc1C(=O)NS(C)(=O)=O` [Compound 469, 2-[(4-fluorophenyl)methyl-[6-(trifluoromethyl)-3-pyridyl]amino]-5-methyl-N-methylsulfonyl-thiazole-4-carboxamide], the EC50 in assay [1] is 158 nM; at human androgen receptor it was 316 nM.
The like results for `Cc1oc(N(Cc2cc3ccccc3s2)c2ccc(C#N)cc2)nc1C(=O)NS(C)(=O)=O` [Compound 618, 2-[N-(benzothiophen-2-ylmethyl)-4-cyano-anilino]-5-methyl-N-methylsulfonyl-oxazole-4-carboxamide] were, in that order, 20 nM and 126 nM.
Turning to `Cc1sc(N(Cc2ccc(-c3ccc(F)cn3)nc2)c2ccc(C#N)cc2)nc1C(=O)NS(C)(=O)=O` [Compound 596, 2-[4-cyano-N-[[6-(5-fluoro-2-pyridyl)-3-pyridyl]methyl]anilino]-5-methyl-N-methylsulfonyl-thiazole-4-carboxamide], the EC50 is 316 nM in assay [1] and 3980 nM at human androgen receptor.
As to `Cc1sc(N(Cc2cc(F)c(F)c(F)c2)c2ccc(C#N)cc2)nc1C(=O)NS(C)(=O)=O` [Compound 125, 2-[4-cyano-N-[(3,4,5-trifluorophenyl)methyl]anilino]-5-methyl-N-methylsulfonyl-thiazole-4-carboxamide], the EC50 in assay [1] is 31.6 nM; at human androgen receptor it was 126 nM.
For `Cc1sc(N(CCc2ccc3c(c2)OCO3)Cc2ccccc2)nc1C(=O)NS(C)(=O)=O` [Compound 708, 2-[2-(1,3-benzodioxol-5-yl)ethyl-benzyl-amino]-5-methyl-N-methylsulfonyl-thiazole-4-carboxamide], the figures for the EC50 (in assay [1]; on human androgen receptor) were 79.4 nM and 501 nM, respectively.
For the compound `Cc1sc(N(Cc2ccccc2)c2ccc(C#N)cc2)nc1C(=O)NS(=O)(=O)Cc1cccnc1` [Compound 397, 2-(N-benzyl-4-cyano-anilino)-5-methyl-N-(3-pyridylmethylsulfonyl)thiazole-4-carboxamide], the EC50 in assay [1] is 63.1 nM; on human androgen receptor it was 126 nM.

These data come from patent publication US10689354B2, “Aminoazole derivative” (Teijin Pharma Limited, priority 2015, dated 2020).
